Calls of active or inactive are those of the source. The rule behind the calls is not given here.
Legend:
Capra hircus [1] = organism: Capra hircus; assay: Inhibition of goat Ca2+-ATPase assessed as liberation of inorganic phosphate preincubated for 5 mins measured after 30 mins following ATP addition by colorimetric analysis in absence of Mg2+ and 300 uM verapamil
[2] = Inhibition of goat Ca2+-ATPase assessed as liberation of inorganic phosphate preincubated for 5 mins measured after 30 mins following ATP addition by colorimetric analysis in presence of Mg2+; set-up: species or system Capra hircus; conditions: read-out: I50
Capra hircus [3] = organism: Capra hircus; assay: Inhibition of goat Ca2+-ATPase assessed as liberation of inorganic phosphate preincubated for 5 mins measured after 30 mins following ATP addition by colorimetric analysis in presence of Mg2+ and 300 uM verapamil
[4] = Inhibition of goat Ca2+-ATPase assessed as liberation of inorganic phosphate preincubated for 5 mins measured after 30 mins following ATP addition by colorimetric analysis in absence of Mg2+; set-up: species or system Capra hircus; conditions: read-out: I50
[5] = Inhibition of sodium/potassium ATPAse

CCOC(=O)C1=C(C)NC(=O)NC1c1ccccc1Cl (stereo not given)
inhibition (Capra hircus [1]): Active
IC50 [2]: 268 µM
inhibition (Capra hircus [3]): Active
IC50 [4]: 247 µM
inhibition [5]: inactive

CCOC(=O)C1=C(C)NC(=O)NC1c1ccccc1 (stereo not given)
inhibition (Capra hircus [1]): Active
IC50 [2]: 222 µM
inhibition (Capra hircus [3]): Active
IC50 [4]: 226 µM
inhibition [5]: inactive

CCOC(=O)C1=C(C)NC(=O)NC1c1cccc([N+](=O)[O-])c1 (stereo not given)
inhibition (Capra hircus [1]): Active
IC50 [2]: 132 µM
inhibition (Capra hircus [3]): Active
IC50 [4]: 282 µM
inhibition [5]: inactive

CCOC(=O)C1=C(C)NC(=O)NC1c1ccc(O)cc1 (stereo not given)
inhibition (Capra hircus [1]): Active
IC50 [2]: 289 µM
inhibition (Capra hircus [3]): Active
IC50 [4]: 203 µM
inhibition [5]: inactive

— ChEMBL document CHEMBL2040738, “Regioselective N1-alkylation of 3,4-dihydropyrimidine-2(1H)-ones: screening of their biological activities against Ca(2+)-ATPase” (Eur J Med Chem, 2012)
